Measured values from patent US10807932B2, “Benzosuberene analogues and related compounds with activity as anticancer agents” (Baylor University, priority 2018, dated 2020).
“Also recorded” adds a separate entry of the source.

Legend:
[1] = system: NCI-H460 (lung) cancer cell line; experiment: Sulforhodamine B (SRB) growth inhibition assay, NCI-H460; assay type: cell-based, human; conditions: 48 h treatment
Excerpt: (§1) Cell Lines and Sulforhodamine B (SRB) Assay.
(§2) The sulforhodamine B (SRB) assay was used to assess growth inhibition of human cancer cells, as previously described. DU-145, SK-OV-3, and NCI-H460 cancer cell lines (obtained from ATCC) were maintained in T75 flasks (Corning) using high glucose DMEM supplemented with 10% fetal bovine serum (Gibco)/1% gentamicin sulfate for a maximum of 15 passages. For these experiments, cells were trypsinized, counted, and plated at 7000-8000 cells/well into 96-well plates (Corning) and incubated for 24 h at 37° C. in a humidified incubator in a 5% CO2 atmosphere. Compounds to be tested were dissolved in DMSO to generate a 10 mg/mL stock solution, and serial dilutions added in media to the plates. Doxorubicin (Sigma-Aldrich) and paclitaxel (Tokyo Chemical) were used as positive controls. After a 48 h treatment, the cells were fixed with trichloroacetic acid (10% final concentration), washed, dried, stained with SRB dye, washed to remove excess dye, and dried. SRB dye was solubilized, and absorbances were measured at wavelength 540 nm and normalized to values at wavelength 630 nm using an automated Biotek plate reader.

[2] = system: DU-145 (prostate) cancer cell line; experiment: Sulforhodamine B (SRB) growth inhibition assay, DU-145; assay type: cell-based, human; conditions: 48 h treatment
Excerpt: as §1, §2

[3] = target: T1, purified bovine brain tubulin (Bos taurus, UniProt P81947+Q6B856); experiment: Inhibition of tubulin polymerization (turbidimetric, cell-free); assay type: biochemical; conditions: for IC50: 10 μM tubulin, extent of polymerization after 20 min at 30° C., read-out: Inhibition of tubulin polymerization IC50 (μM) ± SD; for inhibition of tubulin polymerization (in words): cell-free assay
T1 construct: purified bovine brain tubulin; from tissue; host or cells: bovine brain
Procedure: Inhibition of Tubulin Polymerization.
Tubulin polymerization was evaluated in 0.25 mL reaction mixtures (final volume) containing 1 mg/mL (10 μM) purified bovine brain tubulin, 0.8 M monosodium glutamate (pH 6.6), 4% (v/v) dimethyl sulfoxide, 0.4 mM GTP, and different compound concentrations. All components except GTP were preincubated for 15 min at 30° C. in 0.24 mL. The assay mixtures were cooled to 0° C., and 10 μL of 0.01 M GTP was added to each sample. Reaction mixtures were transferred to cuvettes held at 0° C. in Beckman DU-7400 and DU-7500 spectrophotometers equipped with electronic temperature controllers. The temperature was increased to 30° C., over about 30 s, and polymerization was followed turbidimetrically at 350 nm for 20 min.

[4] = system: tubulin; experiment: Colchicine binding assay (inhibition of [3H]colchicine binding to tubulin); conditions: 1.0 μM tubulin, 5.0 μM [3H]colchicine
Procedure: Colchicine Binding Assay.
Inhibition of [^3H]colchicine binding to tubulin was measured in 0.1 mL reaction mixtures, each containing 1.0 μM tubulin, 5.0 μM [^3H]colchicine (Perkin-Elmer), 5% (v/v) dimethyl sulfoxide, […], and components that stabilize the colchicine binding activity of tubulin (1.0 M monosodium glutamate [adjusted to pH 6.6 with HCl in a 2.0 M stock solution], 0.5 mg/mL bovine serum albumin, 0.1 M glucose-1-phosphate, 1.0 mM MgCl2, and 1.0 mM GTP). […] Reactions were stopped with 2.0 mL of ice-cold water, with the reaction mixtures being placed on ice. Each diluted sample was poured onto a stack of two DEAE-cellulose filters (GE Biomedical), followed by 3 successive 2 mL aliquots of ice-cold water. A reduced vacuum was used to remove excess water from the filters, which were washed three times with 2 mL water and placed into vials containing 5 mL of Biosafe II scintillation cocktail. Samples were counted 18 h later in a Beckman scintillation counter. Samples with inhibitors were compared to samples with no inhibitor, and percent inhibition was determined, correcting all values for the amount of radiolabel bound to the filters in the absence of tubulin.

[5] = system: PC3-DAB2IP-luc human prostate tumor xenograft; experiment: In vivo vascular disruption by dynamic bioluminescence imaging (BLI); parameters: species or system Male Copenhagen rats; conditions: for vascular response by BLI light emission (in words): phosphate
Excerpt: In Vivo Vascular Disruption.
The human prostate cancer cell line (PC3) was modified by knock down of a tumor suppressor protein PC3-DAB2IP and further modified by transfection with a firefly luciferase reporter, as described in detail previously. Male Copenhagen rats (originally from Charles River and bred at UT Southwestern) were inoculated subcutaneously with 5×10^5 PC3-DAB2IP-luc cells mixed with 30% Matrigel® in the right thigh. These rats were approximately 6 weeks old and weighed between 100-120 g on date of implantation. Tumors were allowed to grow to a diameter of at least 1 cm before treatment commenced. Three rats were treated with VDA prodrug 89 (25 mg/mL in saline) administered IP. Rat 1 received 10 mg/kg followed by 40 mg/kg 24 h later and CA4P (30 mg/kg at 20 mg/mL in saline) was administered IP as a control 4 days later. Rat 2 received a single dose of 40 mg/kg of VDA prodrug 89, and rat 3 received 80 mg/kg of 89. Bioluminescence imaging (BLI) was performed before treatment (baseline), and at 4 and 24 h after treatment using an IVIS Spectrum® (Perkin-Elmer). Briefly, anesthetized rats (breathing oxygen with 3% isoflurane, Henry Schein Inc.) were injected subcutaneously in the foreback neck region with 120 mg/kg D-luciferin sodium salt (Gold Biotechnology, St. Louis, Mo.) and imaged over a time course of about 30 min. Fresh luciferin was administered at each time point. The resulting light intensity time curves were analyzed using Living Image® Software and light emission measured for a region of interest encompassing the tumor. All animal procedures were carried out in accordance with the Guide for the Care and Use of Laboratory Animals as adopted and promulgated by the U.S. National Institutes of Health as well as the Institutional Animal Care and Use Committee approved protocols (APN 2017-102168) at the University of Texas Southwestern Medical Center.
Ultimately, VDAs will be used in vivo, and thus it is crucial to understand both efficacy of vascular disruption and potential off target toxicity in vivo. As a preliminary investigation, the extent of vascular damage was assessed in a human prostate tumor line in rats treated with the water-soluble prodrug salt 89 compared to CA4P as control. Many imaging methods have been developed to assess vascular disruption non-invasively in vivo. Dynamic bioluminescence imaging (BLI) was favored for initial validation of VDA activity since it provides a fast, non-invasive and easy method and allows comparison of repeat or sequential investigations. BLI does require the use of cells transfected to express luciferase (luc), but these are commonly available and we have used this approach extensively as have others. The human prostate cancer PC3 line was used, in which the tumor suppressor protein DAB2IP had been knocked down and luciferase introduced. BLI requires administration of luciferin substrate, which readily crosses membranes and is carried throughout the vasculature. The measurement of light emission dynamics is related to vascular delivery of the luciferin substrate, and thus it provides a measure of vascular patency. Disruption of tumor vasculature blocks delivery of the substrate and consequently results in a quantifiable decrease in bioluminescent signal.

[6] = system: SK-OV-3 (ovarian) cancer cell line; experiment: Sulforhodamine B (SRB) growth inhibition assay, SK-OV-3; assay type: cell-based, human; conditions: 48 h treatment
Excerpt: as §1, §2

[7] = 30 mg/kg, rats, shown previously; cited from earlier work

T1 sequence (Q6B856 whole entry): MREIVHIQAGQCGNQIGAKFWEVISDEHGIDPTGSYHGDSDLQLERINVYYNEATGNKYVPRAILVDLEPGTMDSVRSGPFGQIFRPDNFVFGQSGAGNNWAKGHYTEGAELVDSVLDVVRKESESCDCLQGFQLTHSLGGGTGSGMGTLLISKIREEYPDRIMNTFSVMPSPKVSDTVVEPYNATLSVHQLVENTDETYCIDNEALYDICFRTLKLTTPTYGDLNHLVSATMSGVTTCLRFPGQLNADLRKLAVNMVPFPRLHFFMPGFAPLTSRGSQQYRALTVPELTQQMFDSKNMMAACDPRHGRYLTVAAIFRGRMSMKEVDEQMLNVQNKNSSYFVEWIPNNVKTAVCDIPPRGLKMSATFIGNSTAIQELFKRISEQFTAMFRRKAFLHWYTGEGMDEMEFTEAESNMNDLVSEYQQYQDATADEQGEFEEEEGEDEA
T1 sequence (P81947 whole entry): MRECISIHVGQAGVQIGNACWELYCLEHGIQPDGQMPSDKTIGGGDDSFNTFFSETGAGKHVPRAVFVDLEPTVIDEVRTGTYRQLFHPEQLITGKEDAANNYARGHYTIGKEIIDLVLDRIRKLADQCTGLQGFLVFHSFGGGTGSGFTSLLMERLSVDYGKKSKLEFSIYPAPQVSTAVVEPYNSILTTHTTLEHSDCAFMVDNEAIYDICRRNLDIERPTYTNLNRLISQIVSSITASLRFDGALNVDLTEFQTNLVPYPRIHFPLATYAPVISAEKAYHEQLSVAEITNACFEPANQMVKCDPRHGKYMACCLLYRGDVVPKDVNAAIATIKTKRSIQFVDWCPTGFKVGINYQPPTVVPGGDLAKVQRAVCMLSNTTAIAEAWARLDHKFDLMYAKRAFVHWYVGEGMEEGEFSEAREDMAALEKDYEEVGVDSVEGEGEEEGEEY

Compound	GI50 ([1]; Homo sapiens, NCI-H460) [µM]	GI50 ([2]; Homo sapiens, DU-145) [µM]	IC50 [3] [µM]	inhibition of tubulin polymerization (in words) [3]	% Inhibition of colchicine binding ± SD ([4]; compound at 5 μM)	vascular response by BLI light emission (in words) ([5]; 10 mg/kg IP, rat)	vascular response by BLI light emission (in words) ([5]; 40 mg/kg IP, 4 h, rat)	recovery of BLI signal (in words) ([5]; 40 mg/kg IP, 24 h, rat)	appearance of the rats ([5]; 40 mg/kg IP, at 48 h)	tolerability ([5]; 80 mg/kg IP, rat)	vascular disruption (in words) ([5]; 80 mg/kg IP, rat)	GI50 ([6]; Homo sapiens, SK-OV-3) [µM]	GI50 [1] [µM]	GI50 [2] [µM]	vascular shutdown (in words) [7]	vascular response by BLI (in words) ([5]; 30 mg/kg IP, given 4 days after 89 to the same rat)	GI50 [6] [µM]	% Inhibition of colchicine binding ± SD ([4]; compound at 0.5 μM) [%]
COc1cc(C2=CC=CCc3c2ccc(OC)c3OP(=O)([O-])[O-])cc(OC)c1OC.[Na+].[Na+] [Compound 89, Sodium 3-methoxy-9-(3,4,5-trimethoxyphenyl)-5H-benzo[7]annulen-4-yl phosphate]	0.0291	0.0239	16 ± 0.7	inactive	45 ± 2 (5 μM) %	no vascular perturbation; also recorded: minimal change in light emission	substantial vascular shutdown; also recorded: substantially diminished light emission; also recorded: revealed vascular disruption	substantial recovery by 24 h	appeared healthy	well tolerated	did not show additional vascular disruption	0.0153	–	–	–	–	–	–
COc1cc(C2CCc3c(ccc(OC)c3OC)C(=O)C2)cc(OC)c1OC (stereo not shown) [Compound 77, 1,2-Dimethoxy-7-(3,4,5-trimethoxyphenyl)-6,7,8,9-tetrahydro-5H-benzo[7]annulen-5-one]	2	4.45	> 20	lack of activity	0 (5 μM) %	–	–	–	–	–	–	5.77	–	–	–	–	–	–
COc1ccc2c(c1O)CCCC(=O)C2(O)c1cc(OC)c(OC)c(OC)c1 (stereo not shown) [Compound 24, 1,5-Dihydroxy-2-methoxy-5-(3,4,5-trimethoxyphenyl)-5,7,8,9-tetrahydro-6H-benzo[7]annulen-6-one]	0.0476	0.141	1.2 ± 0.1	–	72 ± 2 (5 μM) %	–	–	–	–	–	–	0.0314	–	–	–	–	–	–
COc1ccc(/C=C\c2cc(OC)c(OC)c(OC)c2)cc1OP(=O)(O)O [CA4P, combretastatin A-4 phosphate, reference compound]	–	–	> 40	–	–	–	–	–	–	–	–	–	0.00194	0.00323	extensive vascular shutdown	very similar effect	0.00119	–
COc1ccc2c(c1O)CC=CC=C2c1cc(OC)c(OC)c(OC)c1 [Compound 88, 3-Methoxy-9-(3,4,5-trimethoxyphenyl)-5H-benzo[7]annulen-4-ol]	0.0581	0.0976	0.48 ± 0.08	–	95 ± 0.8%	–	–	–	–	–	–	0.0069	–	–	–	–	–	68 ± 1
CCOC(=O)c1c(OC)ccc2c1CCCC=C2c1cc(OC)c(OC)c(OC)c1 [Compound 47, Ethyl 3-methoxy-9-(3,4,5-trimethoxyphenyl)-6,7-dihydro-5H-benzo[7]annulene-4-carboxylate]	0.353	0.631	1 ± 0.07	–	47 ± 1 (5 μM) %	–	–	–	–	–	–	0.299	–	–	–	–	–	–
